Laboratory results reported in a melting point compilation (Tetko et al.).

Row | SMILES | melting point [°C]
1 | O=C(O)C(NCC(F)(F)F)c1cc(Br)cs1 (configuration not stated) | 178 to 180
2 | O=C1CC2(CCOCC2)CN1 | 132 to 134
3 | Brc1nn2cc(-c3ccccc3)nc2s1 | 186 to 188
4 | O=C(O)c1cc2c(s1)CCCC2 | 179 to 181
5 | Cc1ccc(N)c(-c2nc(C3CC3)n[nH]2)c1 | 205 to 207
6 | Cc1[nH]oc(=N)c1-c1cccc(Cl)c1 | 148 to 150
7 | Cc1c(N)cccc1CS(C)=O (configuration not stated) | 183 to 185
8 | O=c1ccn2ncnc2[nH]1 | 282 to 284
9 | CC1(c2ccc(F)cc2)NC(=O)N(CC(=O)O)C1=O (configuration not stated) | 167 to 169
10 | COc1ccc(S(=O)(=O)N2CCNCC2)cc1OC | 145 to 147
11 | COc1ccc(S(=O)(=O)N(C)C)cc1N | 192 to 194
12 | O=[N+]([O-])c1cccc2cc(I)cnc12 | 118 to 120
13 | CC(C)(C)OC(=O)N1CCN(c2ccc(CN)cc2F)CC1 | 69 to 71
14 | Cc1nn2cccnc2c1C(=O)O | 176 to 178
15 | CC(=O)Nc1cc(S(=O)(=O)Cl)ccc1C | 145 to 147
16 | Cc1ccc(-c2nc3c(s2)C(=O)CCC3)cc1 | 128 to 130
17 | O=C1CCc2c(F)cc(Br)cc21 | 114 to 116
18 | Cc1sc(-n2cccc2)c(C(=O)O)c1C | 156 to 158
19 | CCCNc1ccc(S(N)(=O)=O)cc1N | 104 to 106
20 | COC(=O)c1cc(F)cc(Br)c1N | 36 to 38
21 | Nc1ccnn1Cc1ccc(Cl)c(F)c1 | 68 to 70
22 | O=C(O)c1ccc(S(=O)(=O)N2CCCC2)cc1 | 243 to 245
23 | O=C(O)c1ccncc1N1CCCC1 | 259 to 261
24 | NCCc1nc2ccccc2[nH]1 | 215 to 230

Row | SMILES | melting point [°C]
25 | CC1(C)OCC(C)(C(=O)O)CO1 | 117 to 119
26 | NC(=O)CCNC(=O)c1ccccc1N | 197 to 199
27 | Fc1cccc(F)c1-n1c(S)nc2ccccc21 | 255 to 257
28 | Cc1cc(C(=O)CCl)ccc1F | 33 to 35
29 | CCNC(=O)c1ccc(C)c(N)c1 | 74 to 76
30 | CC1(C)CCC(C)(C)c2cc(C(=O)O)ccc21 | 199 to 201
31 | O=C(O)c1nc(-c2ccccc2)n(-c2ccccc2)n1 | 177 to 181
32 | Cc1cc(S(=O)(=O)Cl)cc(C(=O)O)c1Cl | 169 to 171
33 | NC(=O)CCNC(=O)OCc1ccccc1 | 164 to 166
34 | N#Cc1cccc(NC(=O)NC2CC2)c1 | 139 to 141
35 | Cc1ccc(-c2nnc(Cl)c3ccccc23)cc1C | 241 to 243
36 | O=C(O)C=Cc1cn(-c2ccccc2)nc1-c1ccc(F)cc1 | 229 to 231
37 | COC(=O)N1CCc2n[nH]c(=O)cc2C1 | 189 to 191
38 | CS(=O)(=O)c1cccc(C(=O)c2cc(F)ccc2F)c1 | 87 to 89
39 | O=C1NC(=O)C(c2cc(Br)ccc2F)N1 (configuration not stated) | 194 to 196
40 | CCOc1ccc(N)c(C(F)(F)F)c1 | 69 to 71
41 | O=C(O)C(Sc1ccc(F)cc1)c1ccccc1 (configuration not stated) | 84 to 86
42 | CCn1c(CCl)nc2cc(S(=O)(=O)N3CCCCC3)ccc21 | 234 to 236
43 | CC(C)n1ncc(C(N)=O)c1N | 194 to 196
44 | Nc1c(NCC2CCCO2)c(=O)[nH]c(=O)n1Cc1ccccc1 (configuration not stated) | 221 to 223
45 | Cc1cc(C(=O)O)nn1C(C)C1CC1 (configuration not stated) | 130 to 132
46 | CC(Cl)C(=O)NCC(=O)Nc1ccc(F)c(F)c1F (configuration not stated) | 128 to 130
47 | CS(=O)(=O)Nc1cccc(C(=O)O)c1 | 230 to 232
48 | Cc1cccc(C)c1NC(=O)CCCCl | 104 to 106

Row | SMILES | melting point [°C]
49 | OCc1cc2ccccc2nc1Cl | 163 to 165
50 | COc1ccc(-n2nc(N)cc2C)cc1 | 87 to 89
51 | CCOC(=O)c1c(C)[nH]c(C=O)c1C | 162 to 164
52 | CC1Cc2ccccc2N1C(=O)C1CCCCC1C(=O)O (configuration not stated) | 123 to 125
53 | COc1cc(C=O)ccc1OC(=O)c1cccs1 | 64 to 69
54 | O=C(O)CNCc1cccc(Br)c1 | 213 to 215
55 | CC(C)C(N)c1nn[nH]n1 (configuration not stated) | 272 to 274
56 | Cc1cccc(C(N)C(=O)O)c1 (configuration not stated) | 229 to 231
57 | N#Cc1cc(N)ccc1Cl | 127 to 129
58 | CC(C)c1ccc(C=CCC(=O)O)cc1 | 49 to 51
59 | Cc1nccn1Cc1ccc(N)cc1 | 159 to 161
60 | CC(=O)c1c(C)oc2nc(Br)nn12 | 118 to 120
61 | NNc1ccc2cccc(O)c2n1 | 156 to 158
62 | CCOc1ccc(N2C(=O)c3ccc(C(=O)O)cc3C2=O)cc1 | 265 to 267
63 | O=C(O)c1ccnc(-n2cncn2)c1 | 314 to 316
64 | COC(=O)c1c(C)nn(C)c1Cl | 36 to 38
65 | CCOC(=O)c1cnc2cc(Br)ccc2c1O | 329 to 331
66 | CC(C)(C)OC(=O)NC1CCCCCC1O (configuration not stated) | 85 to 87
67 | N#Cc1ccc(N2CCNCC2)c(F)c1 | 84 to 86
68 | NNC(=O)c1cccc2cccnc12 | 88 to 90
69 | O=[N+]([O-])c1ccc(Cl)cc1CBr | 61 to 63
70 | CC(C)c1nc(Cl)nc(N(C)C)n1 | 57 to 59

Now from value to compound:

Row | melting point [°C] | SMILES
71 | 259 to 261 | COCCNc1cc2nc[nH]c(=O)c2cc1[N+](=O)[O-]
72 | 59 to 61 | COC(=O)c1cc([N+](=O)[O-])c(F)cc1Cl
73 | 60 to 62 | CC(C)(C)C=CC(=O)O
74 | 157 to 159 | Nc1nc(CC(=O)c2ccccc2)cs1
75 | 140 to 142 | CC(=O)c1sc(NCCCC(=O)O)nc1C
76 | 119 to 121 | COC(=O)C(N)Cc1c[nH]c2ccc(Br)cc12 (configuration not stated)
77 | 112 to 114 | Nc1sc2c(c1C(=O)NCc1ccccc1)CCCC2
78 | 165 to 167 | NC(=NO)c1ccc(OCc2cccnc2)cc1
79 | 79 to 82 | NC(Cc1cccs1)=NO
80 | 156 to 158 | Cc1nnnn1-c1ccc(F)c(N)c1
81 | 129 to 131 | O=C(O)C=Cc1cccc(CO)c1
82 | 71 to 73 | Nc1cc(Br)c(F)cc1Cl
83 | 154 to 156 | Sc1nnnn1C1CCOCC1
84 | 250 to 252 | NC1=NC(=O)NC12CCCC2
85 | 141 to 143 | COc1cc(C#N)cc(Cl)c1O
86 | 168 to 170 | CC(C)(C)OC(=O)C(C#N)c1ccc([N+](=O)[O-])cn1 (configuration not stated)
87 | 107 to 111 | Cc1cc(C(=O)C(C)Cl)c(C)n1-c1ccc(Cl)cc1 (configuration not stated)
88 | 121 to 123 | NC(=O)C1CNc2ccccc2C1 (configuration not stated)
89 | 224 to 226 | COc1ccc2[nH]c(C)c(C(=O)CCl)c2c1
90 | 112 to 114 | O=Cc1ccc(OCc2ccncc2)cc1
91 | 43 to 45 | O=C(O)c1cc(NS(=O)(=O)c2cc([N+](=O)[O-])ccc2Cl)ccc1O
92 | 144 to 146 | O=C(O)C1CCN(c2cccc(Br)c2)C1=O (configuration not stated)
93 | 160 to 162 | CCc1ccc(C(N)=NO)cc1
94 | 59 to 61 | O=C1CSCc2c(F)cccc21

Row | melting point [°C] | SMILES
95 | 81 to 83 | COC(=O)c1ccc(Cl)c(N)c1
96 | 59 to 63 | ClCc1cc(Cl)c2c(c1)OCCCO2
97 | 99 to 101 | Cn1ccnc1C(=O)c1ccccc1Cl
98 | 116 to 118 | COC(=O)c1ccc(S(C)(=O)=O)cc1
99 | 68 to 70 | Cc1ccccc1CCNC(=O)CCl
100 | 219 to 221 | Cc1ccc(Nc2nnc(S)s2)cc1
101 | 264 to 266 | O=C(O)c1cc(S(=O)(=O)N2CCOCC2)c[nH]1
102 | 74 to 76 | Cc1cccc(S(=O)(=O)Cl)c1C#N
103 | 88 to 90 | Cc1cc(C=O)c(C)n1-c1ccc(Cl)c(C(F)(F)F)c1
104 | 204 to 206 | Cc1ccc(-c2cc(C(=O)O)on2)cc1
105 | 88 to 90 | Cc1cccc(Cn2[nH]ccc2=NC(=O)CCl)c1
106 | 230 to 232 | NC(=O)c1ccn(-c2ccc(N)cc2)n1
107 | 82 to 84 | NCc1ccccc1-c1ccc(CN2CCCC2=O)cc1
108 | 75 to 77 | N#Cc1ccc(N=C=S)cc1Cl
109 | 177 to 179 | NC(=O)c1ccn(-c2cccc(N)c2)n1
110 | 108 to 110 | N#Cc1c(F)cccc1Sc1ccccc1
111 | 259 to 261 | O=C(O)/C=C/c1cc(Cl)c2c(c1)OCO2
112 | 230 to 232 | NNc1cc(C(F)(F)F)nc2ncnn12
113 | 86 to 88 | O=[N+]([O-])c1ccc(Br)cc1F
114 | 203 to 205 | O=C1NCc2ccc(F)cc21
115 | 123 to 125 | Cc1cccnc1NC(=O)C1CCCNC1 (configuration not stated)
116 | 129 to 131 | O=C(CCl)N1CCN(c2ccc([N+](=O)[O-])cc2)CC1
117 | 138 to 140 | Cc1noc(C)c1COc1ccc(CC(=O)O)cc1
118 | 124 to 126 | O=Cc1csc(-c2ccc(Cl)cc2)n1

Row | melting point [°C] | SMILES
119 | 103 to 105 | CCNC(=O)c1ccc(F)cc1Br
120 | 116 to 118 | Cc1nc(CC(C)C)c(C(=O)O)s1
121 | 204 to 206 | Oc1ccc(-c2cnc3ccccc3n2)cc1
122 | 87 to 89 | N#Cc1cc(C(F)(F)F)ccc1S(=O)(=O)Cl
123 | 279 to 281 | CNS(=O)(=O)c1c[nH]c(=O)[nH]c1=O
124 | 85 to 87 | COc1c(Cl)cc(Cl)cc1C=O
125 | 219 to 221 | O=c1[nH][nH]c2ncc(Br)cc12
126 | 101 to 103 | FC(F)(F)c1nc(Cl)c2cc(Br)ccc2n1
127 | 170 to 172 | CNS(=O)(=O)c1ccc(C)c(C(=O)O)c1
128 | 124 to 126 | Cc1cccc(NC(=O)C2CCCNC2)n1 (configuration not stated)
129 | 72 to 74 | Cc1ccc(S(=O)(=O)OCC2CCN(C(=O)OC(C)(C)C)CC2)cc1
130 | 83 to 85 | Cc1ccc(N2CCC(Br)C2=O)cc1 (configuration not stated)
131 | 63 to 65 | CCOC(=O)c1oc2c(Cl)cccc2c1C
132 | 156 to 158 | O=C(O)c1cc(CCc2ccccc2)ccc1O
133 | 104 to 106 | CCOC(=O)c1cc(C)sc1NC(=O)CCl
134 | 247 to 249 | O=C(O)Cn1c(=O)[nH]c2ccccc21
135 | 113 to 115 | CNC(=O)C1CN(Cc2ccccc2)CCO1 (configuration not stated)
136 | 275 to 277 | CC(C)n1ncc2c(C(=O)O)cc(-c3ccco3)nc21
137 | 115 to 117 | Nc1cc(Cl)ccc1C(=O)N1CCCCC1CCO (configuration not stated)
138 | 192 to 194 | O=Cc1ccc(N2CCNC(=O)C2)cc1
139 | 89 to 91 | Nc1c(-c2ccccc2)nn(-c2ccccc2)c1N
140 | 248 to 250 | O=C(O)c1csc(-c2ccc(Br)s2)n1
141 | 135 to 137 | Cc1cscc1C(=O)O
142 | 83 to 85 | Nc1ccc(S(=O)C(F)F)cc1 (configuration not stated)
